{"source": "PubChem BioAssay (NCI)", "experiment_in_all_cases": "growth of human tumour cells (NCI), 48 h", "key": {"[1]": {"tested_on": "NCI-H23 lung"}, "[2]": {"tested_on": "NCI-H460 lung"}, "[3]": {"tested_on": "NCI-H522 lung"}, "[4]": {"tested_on": "NCI/ADR-RES ovarian"}, "[5]": {"tested_on": "OVCAR-3 ovarian"}, "[6]": {"tested_on": "OVCAR-4 ovarian"}, "[7]": {"tested_on": "OVCAR-5 ovarian"}, "[8]": {"tested_on": "OVCAR-8 ovarian"}, "[9]": {"tested_on": "PC-3 prostate"}, "[10]": {"tested_on": "RPMI-8226 leukemia"}, "[11]": {"tested_on": "RXF 393 renal"}, "[12]": {"tested_on": "SF-268 CNS"}, "[13]": {"tested_on": "SF-295 CNS"}, "[14]": {"tested_on": "SF-539 CNS"}, "[15]": {"tested_on": "SK-MEL-2 melanoma"}, "[16]": {"tested_on": "SK-MEL-28 melanoma"}, "[17]": {"tested_on": "SK-MEL-5 melanoma"}, "[18]": {"tested_on": "SK-OV-3 ovarian"}, "[19]": {"tested_on": "SN12C renal"}, "[20]": {"tested_on": "SNB-19 CNS"}, "[21]": {"tested_on": "SNB-75 CNS"}, "[22]": {"tested_on": "SR leukemia"}, "[23]": {"tested_on": "SW-620 colon"}, "[24]": {"tested_on": "T-47D breast"}, "[25]": {"tested_on": "TK-10 renal"}, "[26]": {"tested_on": "U251 CNS"}, "[27]": {"tested_on": "UACC-257 melanoma"}, "[28]": {"tested_on": "UACC-62 melanoma"}, "[29]": {"tested_on": "UO-31 renal"}}, "note": "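Each compound was tested at five concentrations against cells in 96-well plates for 48 hours. Abbreviation: GI50, concentration required for 50% inhibition of growth. TGI marks complete inhibition of growth.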", "data": [{"smiles": "O=C1NC(=C(Cl)Cl)/C(=N/S(=O)(=O)N2CCCCC2CC2(C(F)(F)F)N=N2)N1", "note": "(configuration not stated)", "values": [{"measurement": "TGI", "setting": "[1]", "result": 3.77, "unit": "µM"}, {"measurement": "GI50", "setting": "[2]", "result": 3.06, "unit": "µM"}, {"measurement": "TGI", "setting": "[2]", "result": 10.7, "unit": "µM"}, {"measurement": "GI50", "setting": "[3]", "result": 1.54, "unit": "µM"}, {"measurement": "TGI", "setting": "[3]", "result": 3.13, "unit": "µM"}, {"measurement": "GI50", "setting": "[4]", "result": 3.45, "unit": "µM"}, {"measurement": "TGI", "setting": "[4]", "result": 15.4, "unit": "µM"}, {"measurement": "GI50", "setting": "[5]", "result": 2.05, "unit": "µM"}, {"measurement": "TGI", "setting": "[5]", "result": 4.13, "unit": "µM"}, {"measurement": "GI50", "setting": "[6]", "result": 1.76, "unit": "µM"}, {"measurement": "TGI", "setting": "[6]", "result": 3.2, "unit": "µM"}, {"measurement": "GI50", "setting": "[7]", "result": 1.9, "unit": "µM"}, {"measurement": "TGI", "setting": "[7]", "result": 3.84, "unit": "µM"}, {"measurement": "GI50", "setting": "[8]", "result": 2.21, "unit": "µM"}, {"measurement": "TGI", "setting": "[8]", "result": 5.17, "unit": "µM"}, {"measurement": "GI50", "setting": "[9]", "result": 2.26, "unit": "µM"}, {"measurement": "TGI", "setting": "[9]", "result": 6.37, "unit": "µM"}, {"measurement": "GI50", "setting": "[10]", "result": 0.385, "unit": "µM"}, {"measurement": "TGI", "setting": "[10]", "result": 8.08, "unit": "µM"}, {"measurement": "GI50", "setting": "[11]", "result": 1.67, "unit": "µM"}, {"measurement": "TGI", "setting": "[11]", "result": 3.22, "unit": "µM"}, {"measurement": "GI50", "setting": "[12]", "result": 3.35, "unit": "µM"}, {"measurement": "TGI", "setting": "[12]", "result": 13.1, "unit": "µM"}, {"measurement": "GI50", "setting": "[13]", "result": 3.23, "unit": "µM"}, {"measurement": "TGI", "setting": "[13]", "result": 12.1, "unit": "µM"}, {"measurement": "GI50", "setting": "[14]", "result": 1.79, "unit": "µM"}, {"measurement": "TGI", "setting": "[14]", "result": 3.56, "unit": "µM"}, {"measurement": "GI50", "setting": "[15]", "result": 1.86, "unit": "µM"}, {"measurement": "TGI", "setting": "[15]", "result": 3.9, "unit": "µM"}, {"measurement": "GI50", "setting": "[16]", "result": 1.85, "unit": "µM"}, {"measurement": "TGI", "setting": "[16]", "result": 3.33, "unit": "µM"}, {"measurement": "GI50", "setting": "[17]", "result": 2.4, "unit": "µM"}, {"measurement": "TGI", "setting": "[17]", "result": 5.93, "unit": "µM"}, {"measurement": "GI50", "setting": "[18]", "result": 15.1, "unit": "µM"}, {"measurement": "TGI", "setting": "[18]", "result": 29.8, "unit": "µM"}, {"measurement": "GI50", "setting": "[19]", "result": 1.29, "unit": "µM"}, {"measurement": "TGI", "setting": "[19]", "result": 2.57, "unit": "µM"}, {"measurement": "GI50", "setting": "[20]", "result": 2, "unit": "µM"}, {"measurement": "TGI", "setting": "[20]", "result": 4.53, "unit": "µM"}, {"measurement": "GI50", "setting": "[21]", "result": 3.5, "unit": "µM"}, {"measurement": "TGI", "setting": "[21]", "result": 17.4, "unit": "µM"}, {"measurement": "GI50", "setting": "[22]", "result": 0.431, "unit": "µM"}, {"measurement": "TGI", "setting": "[22]", "result": 2.67, "unit": "µM"}, {"measurement": "GI50", "setting": "[23]", "result": 1.67, "unit": "µM"}, {"measurement": "TGI", "setting": "[23]", "result": 3.24, "unit": "µM"}, {"measurement": "GI50", "setting": "[24]", "result": 4.16, "unit": "µM"}, {"measurement": "TGI", "setting": "[24]", "result": 22.1, "unit": "µM"}, {"measurement": "GI50", "setting": "[25]", "result": 4.53, "unit": "µM"}, {"measurement": "TGI", "setting": "[25]", "result": 14.2, "unit": "µM"}, {"measurement": "GI50", "setting": "[26]", "result": 1.86, "unit": "µM"}, {"measurement": "TGI", "setting": "[26]", "result": 3.67, "unit": "µM"}, {"measurement": "GI50", "setting": "[27]", "result": 1.96, "unit": "µM"}, {"measurement": "TGI", "setting": "[27]", "result": 4.48, "unit": "µM"}, {"measurement": "GI50", "setting": "[28]", "result": 1.74, "unit": "µM"}, {"measurement": "TGI", "setting": "[28]", "result": 3.57, "unit": "µM"}, {"measurement": "GI50", "setting": "[29]", "result": 2.69, "unit": "µM"}, {"measurement": "TGI", "setting": "[29]", "result": 12.4, "unit": "µM"}]}]}
